As usually defined, the pIC50 is the negative decadic logarithm of the IC50, by convention in mol/L.

This is an account of results in patent US7541367B2, “3-benzoimidazolyl-pyrazolopyridines useful in treating kinase disorders” (Janssen Pharmaceutica, N.V., priority 2005, dated 2009).

pIC50: −log10 of the molar value.

For assay [1], the system named is HeLa cervical adenocarcinoma. The experiment in a line: Cell Proliferation Inhibition Assay (14C-thymidine incorporation), HeLa.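 Note: test compound in DMSO added to cells seeded in scintillating 96-well plates, DMSO-only wells as control, uptake of methyl 14C-thymidine into new DNA counted.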 The assay is classed as cell-based. As to conditions: Homo sapiens, HeLa, HeLa cells.
In the next assay the target is T1, VEGF-R2 (Rattus norvegicus, UniProt O08775).
T1 construct: polyhistidine (N)
T1 sequence (O08775 786-1343): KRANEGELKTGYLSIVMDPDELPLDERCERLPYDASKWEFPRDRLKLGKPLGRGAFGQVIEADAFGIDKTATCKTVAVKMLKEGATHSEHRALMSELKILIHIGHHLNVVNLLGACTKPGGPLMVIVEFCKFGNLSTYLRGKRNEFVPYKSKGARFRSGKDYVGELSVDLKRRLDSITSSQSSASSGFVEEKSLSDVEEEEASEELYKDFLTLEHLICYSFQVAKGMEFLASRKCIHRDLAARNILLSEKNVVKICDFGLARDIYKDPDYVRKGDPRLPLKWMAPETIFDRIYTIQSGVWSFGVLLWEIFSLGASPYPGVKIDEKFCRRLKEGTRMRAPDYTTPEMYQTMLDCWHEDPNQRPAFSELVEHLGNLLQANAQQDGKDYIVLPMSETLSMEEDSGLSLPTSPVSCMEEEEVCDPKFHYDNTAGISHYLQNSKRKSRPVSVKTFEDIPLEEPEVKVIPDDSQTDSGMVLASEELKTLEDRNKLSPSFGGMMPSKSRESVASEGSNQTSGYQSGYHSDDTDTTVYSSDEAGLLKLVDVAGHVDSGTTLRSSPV
Kind of assay: VEGF-R2 kinase screening assay (33P-ATP FlashPlate).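 Note: Read-out is ³³P incorporation from ³³P-γ-ATP into biotinylated peptide substrate captured on streptavidin FlashPlate, counted by scintillation, 1% DMSO final, inhibition scaled between per-plate maximum and minimum signals.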 The assay is classed as biochemical. As to conditions: rat VEGF-R2 kinase domain; 10 μM ATP; 1 hr at 30° C.

The next assay concerns the target T2, RET (Homo sapiens, UniProt P07949).
T2 construct: polyhistidine (N)
T2 sequence (P07949 658-1114 limits assumed): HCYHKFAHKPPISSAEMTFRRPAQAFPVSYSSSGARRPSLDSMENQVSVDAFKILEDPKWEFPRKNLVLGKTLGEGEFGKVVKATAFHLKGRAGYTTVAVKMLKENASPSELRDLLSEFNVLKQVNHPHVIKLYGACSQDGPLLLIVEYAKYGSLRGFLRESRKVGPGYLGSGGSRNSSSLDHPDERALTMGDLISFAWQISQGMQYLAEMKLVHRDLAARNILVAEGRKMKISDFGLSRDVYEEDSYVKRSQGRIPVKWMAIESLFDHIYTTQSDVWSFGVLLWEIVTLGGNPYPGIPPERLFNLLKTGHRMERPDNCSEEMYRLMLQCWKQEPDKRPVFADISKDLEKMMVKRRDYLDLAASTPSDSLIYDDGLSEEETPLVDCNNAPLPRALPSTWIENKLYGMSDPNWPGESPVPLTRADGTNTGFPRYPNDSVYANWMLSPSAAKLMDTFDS
Kind of assay: RET kinase screening assay (33P-ATP FlashPlate).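 Note: biotinylated peptide substrate captured on streptavidin FlashPlate, 33P phosphate transfer read by scintillation counting, 1% DMSO, lower incorporation means inhibition, percent relative to per-plate maximum and minimum signals.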 The assay is classed as biochemical. The note with it: human RET kinase domain; 10 μM ATP; 1 hr at 30° C.

A further assay concerns the target T3, HER2 (Homo sapiens, UniProt P04626).
T3 construct: GST (Glutathione-S-Transferase) (N); HIS6 (N); thrombin cleavage site (N); purchased Proqinase, Freiburg, Germany
Kind of assay: HER2 kinase screening assay (33P-ATP FlashPlate).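 Note: Biotin-poly(GT) 4:1 peptide captured on streptavidin FlashPlate, 33P transfer from γ-ATP read by scintillation counting, lower incorporation means inhibition, 1% DMSO final, 100 µL reaction.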 The assay is classed as biochemical. The note with it: GST-HIS6 HER-2 aa 679 to 1255; 10 μM ATP; 1 hr at 30° C.

A further assay has as its system A375 malignant melanoma. Kind of assay: Cell Proliferation Inhibition Assay (14C-thymidine incorporation), A375.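 Note: proliferation measured by radiolabelled thymidine uptake into new DNA, counted in scintillating 96-well plates, compound-treated wells compared with DMSO-only control wells.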 The assay is classed as cell-based. The note with it: Homo sapiens, A-375, A375 cells. (Incorporation of labelled thymidine or its analogues reports DNA synthesis.)
A further assay deals with T4, CDK1 (Homo sapiens, UniProt P06493).
T4 construct: purchased New England Biolabs, Beverly, Mass; 6020; host or cells: insect cells
T4 sequence (P06493 whole entry): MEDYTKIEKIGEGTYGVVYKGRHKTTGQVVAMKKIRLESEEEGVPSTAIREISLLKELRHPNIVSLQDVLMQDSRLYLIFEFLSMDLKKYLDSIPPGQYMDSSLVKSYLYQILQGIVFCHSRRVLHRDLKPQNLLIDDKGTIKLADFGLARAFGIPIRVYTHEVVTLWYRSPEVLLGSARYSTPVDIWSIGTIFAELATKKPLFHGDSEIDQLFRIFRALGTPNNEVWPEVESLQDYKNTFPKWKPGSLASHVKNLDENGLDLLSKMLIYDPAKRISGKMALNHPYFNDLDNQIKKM
T4 sequence (P14635 whole entry partner): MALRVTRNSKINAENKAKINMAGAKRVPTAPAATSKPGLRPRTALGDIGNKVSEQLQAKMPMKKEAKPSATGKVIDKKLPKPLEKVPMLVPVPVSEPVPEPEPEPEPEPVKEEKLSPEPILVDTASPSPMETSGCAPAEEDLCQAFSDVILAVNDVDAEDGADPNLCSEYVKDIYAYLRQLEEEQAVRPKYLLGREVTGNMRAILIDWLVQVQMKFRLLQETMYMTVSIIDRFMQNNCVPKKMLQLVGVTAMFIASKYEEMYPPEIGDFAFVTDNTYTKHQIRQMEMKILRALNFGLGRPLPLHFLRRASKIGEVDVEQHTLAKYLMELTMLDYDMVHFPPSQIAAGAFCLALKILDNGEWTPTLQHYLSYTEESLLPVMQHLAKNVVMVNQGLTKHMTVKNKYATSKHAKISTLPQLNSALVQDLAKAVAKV
The experiment in a line: CDK-1 kinase screening assay (33P-ATP FlashPlate). The assay is classed as biochemical. The note with it: human CDK1 with cyclin B; 10 μM ATP; 1 hr at 30° C. On the procedure: A kinase reaction mixture was prepared containing 50 mM Tris-HCl pH=8, 10 mM MgCl2, 0.1 mM […], 1 mM DTT, 10 μM ATP, 0.025 μM biotinylated histone-H1 peptide substrate and 0.2 μCuries per well ^33P-γ-ATP (2000-3000 Ci/mmol). 70 μL of the kinase reaction mixture was dispensed into the well of a streptavidin coated FlashPlate™ (Cat. # SMP103, NEN, Boston, Mass.).
Test compound stock in 100% DMSO (1 μL) was added to the wells resulting in a final concentration of 1% DMSO in the reaction with a 100 μL final reaction volume. Each enzyme was diluted in 50 mM Tris-HCl pH=8.0, 0.11% BSA and 30 μL was added to each well to initiate the reaction. The reaction was incubated for one hour at 30° C. At the end of the 1 hr incubation, the reaction was terminated by aspirating the mixture from the plate and washing the wells twice with PBS containing 100 mM EDTA. The biotinylated peptide substrate became immobilized on the Flashplate™ and the incorporation of ^33P-γ-ATP was measured by reading the plate on a scintillation counter. Inhibition of the enzymatic activity was measured by observing a reduced amount of ^33P-γ-ATP incorporated into the immobilized peptide.
The CDK1 enzyme was isolated from insect cells expressing both the human CDK1 catalytic subunit (Accession number NM_001786) and its positive regulatory subunit cyclin B (New England Biolabs, Beverly, Mass.; Cat. # 6020). The assay used 30 ng of the N-terminal biotinylated peptide biotin-[…]-amide (Cyclin dependent kinase 1) per well.
A maximum and minimum signal for the assay was determined on each plate. The percent inhibition of a test compound was calculated according to the formula: […]
For a series of test concentrations, the IC50 was derived by graphing percent inhibition against the log of the concentrations tested for a given compound with results shown in Table 1.
For compounds with multiple values, each value represents a separate assay result.

For another assay, the system named is HCT-116 colon carcinoma. Kind of assay: Cell Proliferation Inhibition Assay (14C-thymidine incorporation), HCT-116.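 Note: proliferation measured as methyl 14C-thymidine uptake into new DNA, counted in 96-well scintillating microplates, compared with DMSO-only control wells.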 The assay is classed as cell-based. As to conditions: Homo sapiens, HCT-116, HCT-116 cells.
The next assay has as its target T5, Aurora-A (Mus musculus, UniProt P97477).
T5 construct: polyhistidine (N)
T5 sequence (P97477 1-395): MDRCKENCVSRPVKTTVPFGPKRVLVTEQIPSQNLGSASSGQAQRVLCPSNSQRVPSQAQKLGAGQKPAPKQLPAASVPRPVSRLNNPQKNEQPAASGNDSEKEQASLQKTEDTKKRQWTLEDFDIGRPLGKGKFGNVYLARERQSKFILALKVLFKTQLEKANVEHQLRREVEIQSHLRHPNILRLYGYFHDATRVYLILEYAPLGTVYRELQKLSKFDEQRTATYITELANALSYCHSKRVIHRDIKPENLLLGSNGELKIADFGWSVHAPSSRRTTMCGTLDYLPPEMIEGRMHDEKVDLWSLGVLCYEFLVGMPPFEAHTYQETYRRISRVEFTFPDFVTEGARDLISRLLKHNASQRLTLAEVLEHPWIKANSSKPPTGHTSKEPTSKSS
The experiment in a line: Aurora-A kinase screening assay (33P-ATP FlashPlate).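 Note: His-tagged mouse Aurora-A phosphorylating a biotinylated peptide captured on streptavidin plates, read as 33P uptake by scintillation counting, 1% DMSO, inhibition scaled between per-plate maximum and minimum signals.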 The assay is classed as biochemical. As to conditions: 10 μM ATP, 1 hr at 30° C.

T3 sequence (P04626 679-1255): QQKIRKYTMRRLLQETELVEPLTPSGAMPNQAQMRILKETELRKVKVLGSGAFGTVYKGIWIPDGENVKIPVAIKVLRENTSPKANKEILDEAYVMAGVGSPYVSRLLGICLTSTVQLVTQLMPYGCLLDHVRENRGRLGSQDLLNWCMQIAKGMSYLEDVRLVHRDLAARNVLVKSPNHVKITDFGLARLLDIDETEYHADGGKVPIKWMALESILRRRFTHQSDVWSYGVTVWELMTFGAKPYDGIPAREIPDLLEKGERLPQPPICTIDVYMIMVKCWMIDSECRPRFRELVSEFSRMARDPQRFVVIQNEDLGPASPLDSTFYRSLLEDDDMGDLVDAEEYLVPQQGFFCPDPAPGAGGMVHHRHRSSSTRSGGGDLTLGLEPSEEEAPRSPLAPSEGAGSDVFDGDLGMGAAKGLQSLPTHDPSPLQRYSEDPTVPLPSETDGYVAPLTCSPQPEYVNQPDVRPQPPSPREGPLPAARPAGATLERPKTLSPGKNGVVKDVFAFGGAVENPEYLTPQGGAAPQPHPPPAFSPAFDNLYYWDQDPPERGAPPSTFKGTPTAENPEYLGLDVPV

Consider `COCc1cccc2[nH]c(-c3n[nH]c4ncc(-c5ccc(S(N)(=O)=O)cc5)cc34)nc12` [Cpd 36, 4-[3-(4-methoxymethyl-1H-benzoimidazol-2-yl)-1H-pyrazolo[3,4-b]pyridin-5-yl]benzenesulfonamide], for which the pIC50 in assay [1] was 5.85; on VEGF-R2, 6.36; on RET, below 5.00; against HER2, below 4.00; in the assay on A375 malignant melanoma, 6.67; against CDK1, 6.26. Besides, the results for the pIC50 with HCT-116 colon carcinoma and against Aurora-A were 7.36 and below 6.00, respectively.
Regarding `CN(C)CCN(C)C(=O)c1cccc2[nH]c(-c3n[nH]c4ncc(-c5cncc6ccccc56)cc34)nc12` [Cpd 26, 2-(5-isoquinolin-4-yl-1H-pyrazolo[3,4-b]pyridin-3-yl)-1H-benzoimidazole-4-carboxylic acid (2-dimethylamino-ethyl)-methyl-amide], the pIC50 in assay [1] was 5.93; against VEGF-R2, below 5.00; on RET it was around 4.00; at HER2, below 5.00; in the assay on A375 malignant melanoma, 5.92; against CDK1, 6.61. Also, the results for the pIC50 in the assay on HCT-116 colon carcinoma and at Aurora-A were 6.05 and 4.92, respectively.
With `O=C(c1cccc2[nH]c(-c3n[nH]c4ncc(-c5cncc6ccccc56)cc34)nc12)N1CCCCC1` [Cpd 22, [2-(5-isoquinolin-4-yl-1H-pyrazolo[3,4-b]pyridin-3-yl)-1H-benzoimidazol-4-yl]-piperidin-1-yl-methanone], the pIC50 in assay [1] was 6.23; at VEGF-R2, 5.67; at RET, around 4.00; against HER2, below 5.00; in the assay with A375 malignant melanoma it was 6.73; against CDK1, 6.86. The pIC50 was 6.26 in the assay with HCT-116 colon carcinoma and 5.70 against Aurora-A.
Take `COCc1cccc2[nH]c(-c3n[nH]c4ncc(-c5cncc(CNC(C)(C)C)c5)cc34)nc12` [Cpd 53, tert-butyl-{5-[3-(4-methoxymethyl-1H-benzoimidazol-2-yl)-1H-pyrazolo[3,4-b]pyridin-5-yl]-pyridin-3-ylmethyl}-amine]: the pIC50 in assay [1] is 6.15; on VEGF-R2, 7.43; against RET it was below 6.00; on HER2, below 5.00; with A375 malignant melanoma, 6.48; on CDK1 it was 6.98. Further, the pIC50 in the assay on HCT-116 colon carcinoma was 6.41; against Aurora-A it was 5.82.
`O=C(NC1CCCC1)c1cccc2[nH]c(-c3n[nH]c4ncc(-c5cncc6ccccc56)cc34)nc12` [Cpd 27, 2-(5-isoquinolin-4-yl-1H-pyrazolo[3,4-b]pyridin-3-yl)-1H-benzoimidazole-4-carboxylic acid cyclopentylamide]: the pIC50 in assay [1] was 6.79; at VEGF-R2, 5.98; against RET, below 6.00; against HER2 it was below 5.00; in the assay on A375 malignant melanoma, 7.12; on CDK1, 7.50. In addition, the pIC50 was 7.10 in the assay with HCT-116 colon carcinoma and below 6.00 against Aurora-A.
Take `CN1CCN(c2ccc3[nH]c(-c4n[nH]c5ncc(-c6cccnc6)cc45)nc3c2)CC1` [Cpd 89, 3-[5-(4-methyl-piperazin-1-yl)-1H-benzoimidazol-2-yl]-5-pyridin-3-yl-1H-pyrazolo[3,4-b]pyridine]: the pIC50 in assay [1] was 6.21; at VEGF-R2, 7.32; against RET it was 6.72; at HER2, 4.50; in the assay on A375 malignant melanoma it was 6.26; in the assay with HCT-116 colon carcinoma, 6.37. On Aurora-A, the pIC50 is 6.65.
For the compound `CN1CCC(NC(=O)c2cccc3[nH]c(-c4n[nH]c5ncc(-c6cncc7ccccc67)cc45)nc23)CC1` [Cpd 28, 2-(5-isoquinolin-4-yl-1H-pyrazolo[3,4-b]pyridin-3-yl)-1H-benzoimidazole-4-carboxylic acid (1-methyl-piperidin-4-yl)-amide], the pIC50 in assay [1] is 4.57; against VEGF-R2, below 4.00; at RET, below 4.00; at HER2, below 5.00; in the assay on A375 malignant melanoma it was 5.25; on CDK1, 6.14. Also, the pIC50 with HCT-116 colon carcinoma was 5.30; at Aurora-A it was below 5.00.
For `CNCc1cncc(-c2cnc3[nH]nc(-c4nc5ccc(C#N)cc5[nH]4)c3c2)c1` [Cpd 105, 2-[5-(5-methylaminomethyl-pyridin-3-yl)-1H-pyrazolo[3,4-b]pyridin-3-yl]-3H-benzoimidazole-5-carbonitrile], the pIC50 in assay [1] is 6.92; against VEGF-R2, below 8.00; against RET it was below 8.00; at HER2, below 5.00; in the assay on A375 malignant melanoma it was 6.28; against CDK1 it was 8.77. For the same compound, the pIC50 in the assay on HCT-116 colon carcinoma was 6.16; at Aurora-A, below 6.00.
As to `COCCOCc1cccc2[nH]c(-c3n[nH]c4ncc(-c5cncc6ccccc56)cc34)nc12` [Cpd 14, 4-{3-[4-(2-methoxy-ethoxymethyl)-1H-benzoimidazol-2-yl]-1H-pyrazolo[3,4-b]pyridin-5-yl}-isoquinoline], the pIC50 was 6.00 in assay [1]; 5.34 at VEGF-R2; around 4.00 against RET; below 4.00 at HER2; 6.19 with A375 malignant melanoma; 7.14 at CDK1. Moreover, the pIC50 is 6.51 in the assay on HCT-116 colon carcinoma and below 6.00 against Aurora-A.
In the case of `O=C(c1cccc2[nH]c(-c3n[nH]c4ncc(-c5cncc6ccccc56)cc34)nc12)N1CCCC1` [Cpd 21, [2-(5-isoquinolin-4-yl-1H-pyrazolo[3,4-b]pyridin-3-yl)-1H-benzoimidazole-4-yl]-pyrrolidin-1-yl-methanone], the pIC50 in assay [1] was 6.09; at VEGF-R2, 5.55; against RET, below 5.00; against HER2, below 5.00; in the assay with A375 malignant melanoma, 6.33; against CDK1 it was 6.79. For the same compound, the pIC50 in the assay with HCT-116 colon carcinoma is 6.05; on Aurora-A, 5.32.
As to `O=C(NC1CCC(O)CC1)c1cccc2[nH]c(-c3n[nH]c4ncc(-c5cncc6ccccc56)cc34)nc12` (stereo not drawn) [Cpd 29, 2-(5-isoquinolin-4-yl-1H-pyrazolo[3,4-b]pyridin-3-yl)-1H-benzoimidazole-4-carboxylic acid (4-hydroxy-cyclohexyl)-amide], the pIC50 in assay [1] is 6.69; against VEGF-R2, 6.64; on RET, around 6.00; at HER2, below 4.00; with A375 malignant melanoma it was 7.16; against CDK1 it was 7.94. Also, the pIC50 in the assay on HCT-116 colon carcinoma was 6.59; against Aurora-A, around 6.00.
